Source: US20260132123A1, “ABAD INHIBITOR COMPOUNDS” (UNIVERSITY COURT OF THE UNIVERSITY OF ST ANDREWS, priority 2021, published 2026)

Key:
17β-HSD10 = target: T1, 17β-HSD10 (Homo sapiens, UniProt Q99714); assay: 17β-HSD10 (ABAD) enzyme inhibition assay, NADH oxidation read at 340 nm (primary screen and dose response); format: biochemical; details: for EC50 / Max. Effect (%) / Hill Slope / Max. Fit / Min. Fit: recombinant 17βHSD10 enzyme assay; for Hill Slope / Max. Fit / Min. Fit: curve fit
T1 construct: Histev (histidine tag with TEV site) (N, cleaved yes); made in house; host or cells: E. coli BL21-CodonPlus
T1 sequence (Q99714 1-261): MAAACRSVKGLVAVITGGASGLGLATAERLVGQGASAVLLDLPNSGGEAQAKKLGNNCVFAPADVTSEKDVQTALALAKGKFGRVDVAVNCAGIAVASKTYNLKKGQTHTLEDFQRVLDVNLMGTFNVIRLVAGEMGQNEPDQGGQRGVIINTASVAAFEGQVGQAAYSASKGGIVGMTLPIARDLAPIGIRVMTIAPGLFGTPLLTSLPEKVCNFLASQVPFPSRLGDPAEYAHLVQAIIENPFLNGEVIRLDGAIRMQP
Procedure, shortened: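 Tag-cleaved recombinant human 17β-HSD10 (2.5 nM) preincubated 15 min with compound in Tris pH 7.4, NaCl, DTT, Tween, BSA (catalase in some runs), then 100 μM acetoacetyl-CoA and NADH added. NADH oxidation by A340 fall: 35 min endpoint for screening at 10 μM; continuous 45 min for dose response.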

mtsABAD HEK293 cells [1] = assay: Lactate dehydrogenase (LDH) cytotoxicity assay; format: cell-based, human; details: 50 μM compound
mtsABAD HEK293 cells [2] = assay: Alamar Blue cell viability assay; format: cell-based, human; details: 50 μM compound

SMILES	EC50 (17β-HSD10)	Max. Effect (%) (17β-HSD10)	Hill Slope (17β-HSD10)	Max. Fit (17β-HSD10)	Min. Fit (17β-HSD10)	IC50 (17β-HSD10; 17β-HSD10 inhibition, read-out: IC50)	LDH % Toxicity (50 μM Dose) (mtsABAD HEK293 cells [1])	Alamar Blue % Viability (50 μM Dose) (mtsABAD HEK293 cells [2])
COc1ccccc1-c1ccccc1[C@@H]1CCCN1C(=O)c1sccc1C [ESC1002325]	309 nM	98%	0.87	100	−11		4.36%	89.12%
COc1cccc(-c2ccccc2[C@@H]2CCCN2C(=O)c2sccc2C)c1OC [ESC1002326]	708 nM	97%	1.1	99	4		5.05%	88.92%
CN(C)CCN(C(=O)c1ccccc1F)c1cccc(N(C)Cc2c[nH]cn2)c1 [ESC1002334, N-[2-(dimethylamino)ethyl]-2-fluoro-N-[3-[1H-imidazol-4-ylmethyl(methyl)amino]phenyl]benzamide]	> 20000 nM	23%					5.17%	92.96%
Cc1ccc(-c2ccccc2[C@@H]2CCCN2C(=O)c2sccc2C)cc1 [ESC1002337]	209 nM	102%	1.3	99	−7		4.10%	85.13%
COc1cccc(-c2ccccc2[C@@H]2CCCN2C(=O)c2sccc2C)c1 [ESC1002338]	191 nM	101%	1.1	100	0	191 nM	4.64%	82.98%
Cc1ccsc1C(=O)N1CCC[C@H]1c1ccccc1-c1cnn(C2CCOCC2)c1 [ESC1002341]	1620 nM	91%	0.87	102	−6		5.13%	96.72%
CN(Cc1c[nH]cn1)c1cccc(N(CC2CC2)C(=O)c2ccccc2F)c1 [ESC1002342, N-(cyclopropylmethyl)-2-fluoro-N-[3-[1H-imidazol-4-ylmethyl(methyl)amino]phenyl]benzamide]	708 nM	99%	1.6	95	−1		4.76%	85.04%

Second part, led by results:

EC50 (17β-HSD10)	Max. Effect (%) (17β-HSD10)	Hill Slope (17β-HSD10)	Max. Fit (17β-HSD10)	Min. Fit (17β-HSD10)	IC50 (17β-HSD10; 17β-HSD10 inhibition, read-out: IC50)	SMILES	LDH % Toxicity (50 μM Dose) (mtsABAD HEK293 cells [1])	Alamar Blue % Viability (50 μM Dose) (mtsABAD HEK293 cells [2])
295 nM	99%	1	102	0		Cc1ccsc1C(=O)N1CCC[C@H]1c1ccccc1-c1ccccc1Cl [ESC1002324]	5.04%	85.64%
1450 nM	89%	0.84	100	−7		Cc1ccsc1C(=O)N1CCC[C@H]1c1ccccc1-c1ccc(Cl)c(C(F)(F)F)c1 [ESC1002327]	4.61%	90.36%
525 nM	99%	1.4	97	7		Cc1ccsc1C(=O)N1CCC[C@H]1c1ccccc1-c1cccc(C)c1C [ESC1002339]	4.39%	82.52%
631 nM	105%	1.6	96	−7		Cc1ccsc1C(=O)N1CCC[C@H]1c1ccccc1-c1ccc(Cl)cc1Cl [ESC1002340]	5.33%	94.26%
